This passage reports IC50 results from patent US20110230476A1, “PI3 KINASE INHIBITORS AND USES THEREOF” (AVILA THERAPEUTICS, INC., priority 2009, published 2011).

pIC50: −log10 of the molar value.

The target of the assay is T1, PI3Kα (p110α/p85α) (Homo sapiens, UniProt P42336).
T1 construct: purchased BPS Bioscience (San Diego, Calif.) or Millipore (Billerica, Mass.)
T1 sequence (P42336 whole entry): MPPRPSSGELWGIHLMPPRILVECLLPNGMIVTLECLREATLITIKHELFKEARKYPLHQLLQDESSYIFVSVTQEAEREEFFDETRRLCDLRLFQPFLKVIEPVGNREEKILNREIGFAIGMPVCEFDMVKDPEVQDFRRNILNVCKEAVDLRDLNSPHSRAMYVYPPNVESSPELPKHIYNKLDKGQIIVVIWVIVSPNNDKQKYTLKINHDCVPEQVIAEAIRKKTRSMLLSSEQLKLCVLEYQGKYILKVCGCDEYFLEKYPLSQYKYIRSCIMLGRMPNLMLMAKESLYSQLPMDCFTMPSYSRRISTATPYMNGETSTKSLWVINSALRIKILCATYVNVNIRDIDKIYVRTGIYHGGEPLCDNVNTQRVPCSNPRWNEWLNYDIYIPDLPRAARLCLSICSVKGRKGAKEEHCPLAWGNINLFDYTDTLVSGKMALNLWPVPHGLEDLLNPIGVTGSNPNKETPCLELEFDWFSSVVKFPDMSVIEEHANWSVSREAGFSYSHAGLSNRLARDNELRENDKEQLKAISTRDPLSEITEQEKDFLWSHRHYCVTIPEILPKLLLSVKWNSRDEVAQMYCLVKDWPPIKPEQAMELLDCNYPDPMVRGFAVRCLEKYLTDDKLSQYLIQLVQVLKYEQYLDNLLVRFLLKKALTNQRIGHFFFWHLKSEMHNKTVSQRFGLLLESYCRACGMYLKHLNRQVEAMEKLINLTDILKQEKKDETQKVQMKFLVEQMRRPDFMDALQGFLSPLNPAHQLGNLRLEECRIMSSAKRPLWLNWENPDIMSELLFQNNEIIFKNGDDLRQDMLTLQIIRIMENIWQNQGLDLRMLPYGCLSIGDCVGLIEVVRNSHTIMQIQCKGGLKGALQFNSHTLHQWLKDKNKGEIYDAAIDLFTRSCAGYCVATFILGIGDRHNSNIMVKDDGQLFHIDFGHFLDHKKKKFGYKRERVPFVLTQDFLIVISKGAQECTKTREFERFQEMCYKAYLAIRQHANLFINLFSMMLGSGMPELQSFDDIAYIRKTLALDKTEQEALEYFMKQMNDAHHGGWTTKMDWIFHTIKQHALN
T1 sequence (P27986 whole entry partner): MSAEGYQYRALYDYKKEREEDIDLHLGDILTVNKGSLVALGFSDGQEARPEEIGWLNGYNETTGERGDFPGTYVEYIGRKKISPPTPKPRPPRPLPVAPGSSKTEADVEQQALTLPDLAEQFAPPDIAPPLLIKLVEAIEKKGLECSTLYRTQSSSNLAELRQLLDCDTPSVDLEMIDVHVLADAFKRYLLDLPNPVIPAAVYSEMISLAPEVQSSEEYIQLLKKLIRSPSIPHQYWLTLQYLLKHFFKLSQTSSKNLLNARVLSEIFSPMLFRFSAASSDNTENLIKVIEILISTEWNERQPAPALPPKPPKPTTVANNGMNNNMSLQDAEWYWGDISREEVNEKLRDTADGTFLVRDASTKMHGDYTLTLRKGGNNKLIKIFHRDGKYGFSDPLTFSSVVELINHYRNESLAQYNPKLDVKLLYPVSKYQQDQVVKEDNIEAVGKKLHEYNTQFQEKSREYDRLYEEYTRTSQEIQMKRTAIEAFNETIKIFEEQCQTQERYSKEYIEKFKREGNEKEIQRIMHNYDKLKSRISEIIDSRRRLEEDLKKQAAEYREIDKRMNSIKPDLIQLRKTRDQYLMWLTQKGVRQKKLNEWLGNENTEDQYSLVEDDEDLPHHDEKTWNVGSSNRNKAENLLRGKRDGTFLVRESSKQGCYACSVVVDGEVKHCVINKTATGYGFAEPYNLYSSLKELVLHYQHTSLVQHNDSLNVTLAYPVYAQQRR
Briefly: HTRF assay, potency against active PI3Kα. The format is biochemical. As to conditions: HTRF; [ATP]=50 μM, [di-C8-PIP2]=10 μM; 30 min pre-incubation; read-out: PI3Kα Inhibition. The protocol: Homogeneous Time Resolved Fluorescence (HTRF) Assay Protocol for Potency Assessment Against the Active Forms of PI3Kα, PI3Kβ, and PI3Kγ
The mechanics of the assay platform are best described by the vendor (Millipore, Billerica, Mass.) on their website at the following URL: www.millipore.com/coa/tech1/74jt4z.
Briefly, Stop solution (Stop A, #33-007 and Stop B, #33-009; 3:1 ratio) and Detection Mix (from DMC, #33-015 with DMA, #33-011 and DMB, #33-013; 18:1:1 ratio) were prepared as recommended by the manufacturer about 2 hrs prior to use. […] Lipid kinase reactions were started with the addition of 5 μL of ATP solution, mixed for 15 sec on a rotary plate shaker and incubated for 30-60 minutes at 25° C. Next, reactions were stopped with a 5 μL addition of Stop solution immediately followed by a 5 μL volume of Detection Mix. […] At the conclusion of each assay, the HTRF ratio from fluorescence emission values for each well was calculated and % Inhibition determined from averaged controls wells (+/−PI3K enzyme). % Inhibition values for each compound were then plotted against inhibitor concentration to estimate IC50 from log [Inhibitor] vs Response, Variable Slope model in GraphPad Prism from GraphPad Software (San Diego, Calif.).
On the technique in general: TR-FRET usually uses a lanthanide donor and a delayed reading to cut background.
Consider `C/C=C/C(=O)OCC(=O)N1CCN(Cc2cc3nc(-c4cccc5[nH]ncc45)nc(N4CCOCC4)c3s2)CC1` [II-a-146, (E)-2-(4-((2-(1H-indazol-4-yl)-4-morpholinothieno[3,2-d]pyrimidin-6-yl)methyl)piperazin-1-yl)-2-oxoethyl but-2-enoate], for which the pIC50 is < 6.00.
On to `C=CC(=O)NC1CCN(c2ccc(-c3cc4nc(-c5cccc6[nH]ncc56)nc(N5CCOCC5)c4s3)cc2)CC1` [II-a-110, N-(1-(4-(2-(1H-indazol-4-yl)-4-morpholinothieno[3,2-d]pyrimidin-6-yl)phenyl)piperidin-4-yl)acrylamide], for which the pIC50 is 6.00 to 7.00.
Consider `CC(C)CC(=O)C(=O)N1CCN(c2ccc(-c3cc(-c4cnc(N)nc4)nc(N4CCOCC4)c3)cn2)CC1` [XII-29, 1-(4-(2′-(2-aminopyrimidin-5-yl)-6′-morpholino-3,4′-bipyridin-6-yl)piperazin-1-yl)-4-methylpentane-1,2-dione], for which the pIC50 is 6.00 to 7.00.
Turning to `COc1ccc(-c2nn(C3CCN(C(=O)CCCC(=O)/C=C/c4ccccc4)CC3)c3ncnc(N)c23)cc1OC` [XI-5], the pIC50 was < 6.00.
Take `C=CC(=O)Nc1cccc(C(=O)N2CC=C(c3cc4nc(-c5cnc(N)nc5)nc(N5CCOCC5)c4s3)CC2)c1` [II-a-171, N-(3-(4-(2-(2-aminopyrimidin-5-yl)-4-morpholinothieno[3,2-d]pyrimidin-6-yl)-1,2,3,6-tetrahydropyridine-1-carbonyl)phenyl)acrylamide]: the pIC50 was > 8.00.
For the compound `CC(C)=CC(=O)C(F)(F)C(F)(F)C(=O)N1CCN(Cc2cc3nc(-c4cccc5[nH]ncc45)nc(N4CCOCC4)c3s2)CC1` [II-a-157, 1-(4-((2-(1H-indazol-4-yl)-4-morpholinothieno[3,2-d]pyrimidin-6-yl)methyl)piperazin-1-yl)-2,2,3,3-tetrafluoro-6-methylhept-5-ene-1,4-dione], the pIC50 was 6.00 to 7.00.
For the compound `C=CC(=O)NCC(=O)N1CCC(O)(c2cc3nc(-c4cccc5[nH]ncc45)nc(N4CCOCC4)c3s2)CC1` [II-a-134, N-(2-(4-(2-(1H-indazol-4-yl)-4-morpholinothieno[3,2-d]pyrimidin-6-yl)-4-hydroxypiperidin-1-yl)-2-oxoethyl)acrylamide], the pIC50 was 6.00 to 7.00.
As for `C=CC(=O)Nc1ccc(CN2CCC(n3ncc4c(N5CCOCC5)nc(-c5ccc(NC(=O)NC)cc5)nc43)CC2)cc1` [VII-5, N-(4-((4-(6-(4-(3-methylureido)phenyl)-4-morpholino-1H-pyrazolo[3,4-d]pyrimidin-1-yl)piperidin-1-yl)methyl)phenyl)acrylamide], the figure is 6.00 to 7.00.
Next, `C=CC(=O)N[C@H]1CCCC[C@H]1C(=O)N1CCN(Cc2cc3nc(-c4cccc5[nH]ncc45)nc(N4CCOCC4)c3s2)CC1` [II-a-96]: 6.00 to 7.00; `CC(C)=CC(=O)CN1CCN(C2CCN(c3cc(-c4cnc(N)nc4)nc(N4CCOCC4)c3)CC2)CC1` [XII-34, 1-(4-(1-(2-(2-aminopyrimidin-5-yl)-6-morpholinopyridin-4-yl)piperidin-4-yl)piperazin-1-yl)-4-methylpent-3-en-2-one]: 6.00 to 7.00.
For `C/C=C/C(=O)CCC(=O)N1CCC(O)(C#Cc2cc3nc(-c4cccc(O)c4)nc(N4CCOCC4)c3s2)CC1` [II-a-104, (E)-1-(4-hydroxy-4-((2-(3-hydroxyphenyl)-4-morpholinothieno[3,2-d]pyrimidin-6-yl)ethynyl)piperidin-1-yl)hept-5-ene-1,4-dione], the pIC50 is > 8.00.
Regarding `CC(C)=CC(=O)CCCC(=O)N1CCN(c2cc(-c3cnc(N)nc3)nc(N3CCOCC3)c2)CC1` [XII-30, 1-(4-(2-(2-aminopyrimidin-5-yl)-6-morpholinopyridin-4-yl)piperazin-1-yl)-7-methyloct-6-ene-1,5-dione], the pIC50 is 6.00 to 7.00.
With `CC(C)=CC(=O)C(=O)N1CCC(C#Cc2cc(-c3cnc(N)nc3)nc(N3CCOCC3)c2)CC1` [XII-32, 1-(4-((2-(2-aminopyrimidin-5-yl)-6-morpholinopyridin-4-yl)ethynyl)piperidin-1-yl)-4-methylpent-3-ene-1,2-dione], the pIC50 was 6.00 to 7.00.
As for `C=CC(=O)N[C@H]1CC[C@@H](C(=O)N2CCN(Cc3cc4nc(-c5cccc6[nH]ncc56)nc(N5CCOCC5)c4s3)CC2)CC1` [II-a-99], the figure is 6.00 to 7.00.
As to `CC(C)=CC(=O)CN1CCN(c2ccc(-c3cc(-c4cnc(N)nc4)nc(N4CCOCC4)c3)cn2)CC1` [XII-27, 1-(4-(2′-(2-aminopyrimidin-5-yl)-6′-morpholino-3,4′-bipyridin-6-yl)piperazin-1-yl)-4-methylpent-3-en-2-one], the pIC50 was 7.00 to 8.00.
`O=C(/C=C/c1ccccc1)CCC(=O)N1CCC(O)(c2cc3nc(-c4cccc5[nH]ncc45)nc(N4CCOCC4)c3s2)CC1` [II-a-136, (E)-1-(4-(2-(1H-indazol-4-yl)-4-morpholinothieno[3,2-d]pyrimidin-6-yl)-4-hydroxypiperidin-1-yl)-6-phenylhex-5-ene-1,4-dione]: the pIC50 was 6.00 to 7.00.
As for `CC(C)=CC(=O)CCCC(=O)N1CC=C(c2cc(-c3cnc(N)nc3)nc(N3CCOCC3)c2)CC1` [XII-3, 1-(4-(2-(2-aminopyrimidin-5-yl)-6-morpholinopyridin-4-yl)-5,6-dihydropyridin-1(2H)-yl)-7-methyloct-6-ene-1,5-dione], the figure is 7.00 to 8.00; as for `CC(C)=CC(=O)C1(C(=O)N2CCC3(CC2)CCN(c2cc(-c4cnc(N)nc4)nc(N4CCOCC4)c2)CC3)CC1` [XII-36, 1-(1-(9-(2-(2-aminopyrimidin-5-yl)-6-morpholinopyridin-4-yl)-3,9-diazaspiro[5.5]undecane-3-carbonyl)cyclopropyl)-3-methylbut-2-en-1-one], 6.00 to 7.00; as for `C=CC(=O)N1CCC(O)(C#Cc2cc3nc(-c4cccc5[nH]ncc45)nc(N4CCOCC4)c3s2)CC1` [II-a-101, 1-(4-((2-(1H-indazol-4-yl)-4-morpholinothieno[3,2-d]pyrimidin-6-yl)ethynyl)-4-hydroxypiperidin-1-yl)prop-2-en-1-one], 6.00 to 7.00.
For `CC(C)=CC(=O)c1ccc(CCNC(=O)c2cc(-c3cnc(N)cc3C(F)(F)F)nc(N3CCOCC3)c2)cc1` [XII-9, 6′-amino-N-(4-(3-methylbut-2-enoyl)phenethyl)-6-morpholino-4′-(trifluoromethyl)-2,3′-bipyridine-4-carboxamide], the pIC50 was < 6.00.
As to `C/C=C/C(=O)CCCC(=O)NCC(=O)N1CC=C(c2cc3nc(-c4cccc5[nH]ncc45)nc(N4CCOCC4)c3s2)CC1` [II-a-61, (E)-N-(2-(4-(2-(1H-indazol-4-yl)-4-morpholinothieno[3,2-d]pyrimidin-6-yl)-5,6-dihydropyridin-1(2H)-yl)-2-oxoethyl)-5-oxooct-6-enamide], the pIC50 was > 8.00.
For `C=CC(=O)N1CCN(c2ccc(-c3ccnc4ccc(/C=C5\SC(=O)NC5=O)cc34)cc2)CC1` [V-11, (Z)-5-((4-(4-(4-acryloylpiperazin-1-yl)phenyl)quinolin-6-yl)methylene)thiazolidine-2,4-dione], the pIC50 is 7.00 to 8.00.
In the case of `C/C=C/C(=O)CCCC(=O)N1CCN(c2ccc(-c3ccnc4ccc(/C=C5\SC(=O)NC5=O)cc34)cn2)CC1` [V-14, (Z)-5-((4-(6-(4-((E)-5-oxooct-6-enoyl)piperazin-1-yl)pyridin-3-yl)quinolin-6-yl)methylene)thiazolidine-2,4-dione], the pIC50 is > 8.00.
In the case of `C/C=C/C(=O)CCCC(=O)N1CC=C(c2cc3nc(-c4cccc5[nH]ncc45)nc(N4CCOCC4)c3s2)CC1` [II-a-60, (E)-1-(4-(2-(1H-indazol-4-yl)-4-morpholinothieno[3,2-d]pyrimidin-6-yl)-5,6-dihydropyridin-1(2H)-yl)oct-6-ene-1,5-dione], the pIC50 is 7.00 to 8.00.
As for `CN(C)C/C=C/C(=O)NC1CCN(c2ccc(-c3cc4nc(-c5cccc(O)c5)nc(N5CCOCC5)c4s3)cc2)CC1` [II-a-150, (E)-4-(dimethylamino)-N-(1-(4-(2-(3-hydroxyphenyl)-4-morpholinothieno[3,2-d]pyrimidin-6-yl)phenyl)piperidin-4-yl)but-2-enamide], the figure is 7.00 to 8.00; as for `C=CC(=O)Nc1ccc(C(=O)N2CCC(n3nc(-c4ccc(OC)c(OC)c4)c4c(N)ncnc43)CC2)cc1` [XI-6, N-(4-(4-(4-amino-3-(3,4-dimethoxyphenyl)-1H-pyrazolo[3,4-d]pyrimidin-1-yl)piperidine-1-carbonyl)phenyl)acrylamide], < 6.00.
On to `C=CC(=O)NCc1ccc(-c2cc3nc(-c4cccc5[nH]ncc45)nc(N4CCOCC4)c3s2)cc1` [II-a-107, N-(4-(2-(1H-indazol-4-yl)-4-morpholinothieno[3,2-d]pyrimidin-6-yl)benzyl)acrylamide], for which the pIC50 is 6.00 to 7.00.
`C/C=C/C(=O)CCC(=O)NCCOc1ccc2c(c1OC)N=C(NC(=O)c1cccnc1)N1CCN=C21` [IX-2, (E)-N-(7-methoxy-8-(2-(4-oxohept-5-enamido)ethoxy)-2,3-dihydroimidazo[1,2-c]quinazolin-5-yl)nicotinamide]: the pIC50 is 7.00 to 8.00.
In the case of `C=CC(=O)Nc1ccc(OCc2cc3nc(-c4cnc(N)nc4)cc(N4CCOCC4)c3s2)cc1` [II-g-8, N-(4-((5-(2-aminopyrimidin-5-yl)-7-morpholinothieno[3,2-b]pyridin-2-yl)methoxy)phenyl)acrylamide], the pIC50 is 6.00 to 7.00.
